Results: patent US10881110B2, “Herbicidal compositions comprising isoxazolo[5,4-b]pyridines” (BASF SE, priority 2014, dated 2021)
Where two headings read alike, the source gives them in different places.

Legend:
Assay in all cases: greenhouse post-emergence herbicidal test
GERDI = format: in vivo, Geranium dissectum; design: key to herbicidal activity against GERDI found: rating on a scale from 0 to 100; details: post emergence
In short: (§1)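 Combination activity judged against additive expectation by Colby, E=X+Y−(X·Y/100), from 0–100 damage ratings taken 20 days post-spray. Plants at 1–15 cm in loamy sand (69.9% sand) were sprayed with components formulated as 10% w/w emulsion concentrate in water.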

KCHSC = format: in vivo, Kochia scoparia; design: key to herbicidal activity against KCHSC found: rating on a scale from 0 to 100; details: post emergence
In short: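 Post-emergence greenhouse test: plants in loamy sand, sprayed at 1–15 cm height with aqueous spray liquor from 10% emulsion concentrates, kept at 10-25 °C or 20-35 °C by species. Damage scored 0–100 (100 = complete destruction), usually 20 days after treatment. Expected additive effect E from Colby: E=X+Y−(X·Y/100).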

PANMI = format: in vivo, Panicum miliaceum; details: application rate a.i.: I.1 125 g/ha, alone or as mixture (composition 1.113)
Description: The culture containers used were plastic pots containing medium loamy sand with approximately 4.6% of humus and 69.9% sand as substrate. The seeds of the test plants were sown separately for each species.
For the post-emergence treatment, the test plants were grown to a plant height of from 1 to 15 cm, depending on the plant habit, and only then treated with the active compounds which had been suspended or emulsified in water. To this end, the test plants were either sown directly, and grown in the same containers, or they were first grown separately as seedlings and transplanted into the test containers a few days prior to treatment.
Depending on the species, the plants were kept at 10-25° C. and 20-35° C., respectively.
The test period extended over 1 to 3 weeks. During this time, the plants were tended and their response to the individual treatments was evaluated 20 days after treatment except mentioned otherwise.
Evaluation was carried out using a scale from 0 to 100. 100 means no emergence of the plants, or complete destruction of at least the above-ground parts, and 0 means no damage or normal course of growth.
The respective stated components A and B, and, if appropriate, C, were formulated as a 10% by weight strength emulsion concentrate and, with addition of the amount of solvent system, introduced into the spray liquor used for applying the active compound. In the examples, the solvent used was water.
In the examples below, using the method of S. R. Colby (1967) “Calculating synergistic and antagonistic responses of herbicide combinations”, Weeds 15, p. 22 ff., the value E, which is expected if the activity of the individual active compounds is only additive, was calculated. E=X+Y−(X·Y/100)

STEME = format: in vivo, Stellaria media; design: key: scale 0 to 100
In short: as §1

SORVU = format: in vivo; details: 6 days after treatment
[1] = applied alone at 31.25 g/ha a.i.
[2] = 6 days after treatment, g/ha a.i.: I.1 31.25, B.96 35, mixture 31.25+35

O=C(O)c1cc(C2CC2)nc2onc(C3CC3)c12 [I.1]
herbicidal activity against GERDI found (GERDI; application rate a.i.: I.1 62.5 g/ha, B.40 (imazethapyr) 7.5 g/ha, alone or as mixture (composition 1.40)): 70
herbicidal activity against GERDI found (GERDI; application rate a.i.: I.1 62.5 g/ha, B.87 (carfentrazone-ethyl) 1.75 g/ha, alone or as mixture (composition 1.87)): 85
herbicidal activity against GERDI found (GERDI; application rate a.i.: I.1 125 g/ha, B.113 (glyphosate) 135 g/ha, alone or as mixture (composition 1.113)): 80
herbicidal activity against GERDI found (GERDI; application rate a.i.: I.1 250 g/ha, B.193 15 g/ha, alone or as mixture (composition 1.193)): 95
herbicidal activity against GERDI found (GERDI; [1]): 65
herbicidal activity against GERDI found (GERDI; g/ha a.i.: I.1 31.25, B.52 2.5, mixture 31.25+2.5): 50
herbicidal activity against GERDI found (GERDI; g/ha a.i.: I.1 62.5, B.52 2.5, mixture 62.5+2.5): 65
herbicidal activity against GERDI found (GERDI; g/ha a.i.: I.1 125, B.52 2.5, mixture 125+2.5): 65
pest or weed control at 31.25 g/ha (KCHSC; Bassia scoparia, post-emergence, 480 h, I.1 alone 31.25 g/ha a.i., read-out: herbicidal activity against KCHSC found): 70%
pest or weed control at 62.5 g/ha (KCHSC; Bassia scoparia, post-emergence, 480 h, I.1 alone 62.5 g/ha a.i., read-out: herbicidal activity against KCHSC found): 85%
pest or weed control at 31.25 g/ha (KCHSC; Bassia scoparia, post-emergence, 480 h, 31.25 g/ha a.i., read-out: herbicidal activity against KCHSC found): 75%
pest or weed control at 125 g/ha (KCHSC; Bassia scoparia, post-emergence, 480 h, I.1 125 g/ha a.i., read-out: herbicidal activity against KCHSC found): 95%
pest or weed control at 15.625 g/ha (KCHSC; Bassia scoparia, post-emergence, 480 h, single active, 15.625 g/ha a.i., read-out: herbicidal activity against KCHSC found): 0%
pest or weed control at 31.25 g/ha (KCHSC; Bassia scoparia, post-emergence, 480 h, single active, 31.25 g/ha a.i., read-out: herbicidal activity against KCHSC found): 30%
pest or weed control at 62.5 g/ha (KCHSC; Bassia scoparia, post-emergence, 480 h, single active, 62.5 g/ha a.i., read-out: herbicidal activity against KCHSC found): 70%
herbicidal activity against KCHSC found (KCHSC; [2]): 10
herbicidal activity against KCHSC found (KCHSC; 6 days after treatment, g/ha a.i.: I.1 31.25, B.96 70, mixture 31.25+70): 10
herbicidal activity against KCHSC found (KCHSC; 6 days after treatment, g/ha a.i.: I.1 31.25, B.96 140, mixture 31.25+140): 10
herbicidal activity against KCHSC found (KCHSC; 6 days after treatment, g/ha a.i.: I.1 31.25, naptalam 100, mixture 31.25+100): 10
herbicidal activity against KCHSC found (KCHSC; 6 days after treatment, g/ha a.i.: I.1 31.25, naptalam 200, mixture 31.25+200): 10
herbicidal activity against KCHSC found (KCHSC; 6 days after treatment, g/ha a.i.: I.1 62.5, B.96 35, mixture 62.5+35): 90
herbicidal activity against KCHSC found (KCHSC; 6 days after treatment, g/ha a.i.: I.1 62.5, B.96 70, mixture 62.5+70): 90
herbicidal activity against KCHSC found (KCHSC; I.1 15.62 g/ha, B.88 1 g/ha a.i.): 45
herbicidal activity against KCHSC found (KCHSC; I.1 31.25 g/ha, B.103 7.5 g/ha a.i.): 30
herbicidal activity against KCHSC found (KCHSC; I.1 31.25 g/ha, B.103 15 g/ha a.i.): 30
herbicidal activity against KCHSC found (KCHSC; I.1 31.25 g/ha, B.167 62.5 g/ha a.i.): 30
herbicidal activity against KCHSC found (KCHSC; I.1 31.25 g/ha, B.88 1 g/ha a.i.): 55
herbicidal activity against KCHSC found (KCHSC; I.1 62.5 g/ha, B.103 7.5 g/ha a.i.): 70
herbicidal activity against KCHSC found (KCHSC; I.1 62.5 g/ha, B.103 15 g/ha a.i.): 70
herbicidal activity against KCHSC found (KCHSC; I.1 62.5 g/ha, B.167 62.5 g/ha a.i.): 70
herbicidal activity against KCHSC found (KCHSC; I.1 62.5 g/ha, B.88 1 g/ha a.i.): 80
herbicidal activity against KCHSC found (KCHSC; [1]): 80
herbicidal activity against KCHSC found (KCHSC; applied alone at 125 g/ha a.i.): 95
herbicidal activity against KCHSC found (KCHSC; g/ha a.i.: I.1 31.25, B.24 1, mixture 31.25+1): 40
herbicidal activity against KCHSC found (KCHSC; g/ha a.i.: I.1 31.25, B.24 2, mixture 31.25+2): 40
herbicidal activity against PANMI, found (PANMI; B.113 (glyphosate) 33.75 g/ha): 60
herbicidal activity against PANMI, found (PANMI; B.113 (glyphosate) 135 g/ha): 60
herbicidal activity against STEME found (STEME; 31.25 g/ha a.i.): 70
herbicidal activity against STEME found (STEME; 62.5 g/ha a.i.): 65
herbicidal activity against STEME found (STEME; [2]): 60
herbicidal activity against STEME found (STEME; I.1 15.62 g/ha, B.103 15 g/ha a.i.): 60
herbicidal activity against STEME found (STEME; I.1 15.62 g/ha, B.89 25 g/ha a.i.): 0
herbicidal activity against STEME found (STEME; I.1 31.25 g/ha, B.89 12.5 g/ha a.i.): 0
herbicidal activity against STEME found (STEME; I.1 31.25 g/ha, B.89 25 g/ha a.i.): 0
herbicidal activity against STEME found (STEME; I.1 alone 31.25 g/ha a.i.): 30
herbicidal activity against STEME found (STEME; a.i. g/ha: I.1 2.3, B.67 62.5, 20 days after treatment): 0%
herbicidal activity against STEME found (STEME; a.i. g/ha: I.1 6.9, B.67 62.5, 20 days after treatment): 0%
herbicidal activity against STEME found (STEME; a.i. g/ha: I.1 15.6, B.67 125, 20 days after treatment): 0%
herbicidal activity against STEME found (STEME; a.i. g/ha: I.1 20.8, B.67 62.5, 20 days after treatment): 50%
herbicidal activity against STEME found (STEME; a.i. g/ha: I.1 31.25, B.190 62.5, 20 days after treatment): 70%
herbicidal activity against STEME found (STEME; a.i. g/ha: I.1 31.25, B.67 125, 20 days after treatment): 70%
herbicidal activity against STEME found (STEME; a.i. g/ha: I.1 31.25, B.67 125, 20 days after treatment, sub-table r36-r43): 70%
herbicidal activity against STEME found (STEME; a.i. g/ha: I.1 62.5, B.191 225, 20 days after treatment): 85%
herbicidal activity against SORVU found (SORVU; g/ha a.i.: I.1 31.25, B.96 140, mixture 31.25+140): 0
herbicidal activity against SORVU found (SORVU; g/ha a.i.: I.1 62.5, naptalam 200, mixture 62.5+200): 20
